According to patent US11666567B2, “Bromocriptine formulations” (VeroScience LLC, priority 2012, dated 2023):

Experiment: Volume-based particle size distribution of bromocriptine mesylate by laser diffractometry (Sympatec HELOS)
Assay type: physicochemical
Settings: Table 13, micronized material used for Example 9 tablets
Description: The parameters Dv10, Dv50, Dv90 and Dv99 represent the particle size at the 10%, 50%, 90% and 99% points of the cumulative volume undersize particle size distribution. Thus, a “Dv10” for a material represents a particle size wherein 10% of the volume of the material consists of particles having a particle size equal to the Dv10 value or smaller. A “Dv50” for a material represents a particle size wherein 50% of the volume of the material consists of particles having a particle size equal to the Dv50 value or smaller. A “Dv90” for a material represents a particle size wherein 90% of the volume of the material consists of particles having a particle size equal to the Dv90 value or smaller. A “Dv99” for a material represents a particle size wherein 99% of the volume of the material consists of particles having a particle size equal to the Dv99 value or smaller.
The particle size distribution ranges defined herein are based upon measurements made using technology and instruments using laser particle size analysis using the instruments and methods developed by [sequence] GmbH, in particular Sympatec HELOS which can provide particle size analysis of dry and wet samples, i.e., of powders, suspensions, emulsions or sprays and is built to the specifications of ISO 13320 “Particle size analysis—laser diffraction methods.”
Finally, the possible role of the particle size of bromocriptine mesylate used in the manufacturing process was investigated. The volume-based particle size distribution for the bromocriptine mesylate used in preparing the tablet batches was measured by laser diffractometry using a Sympatec HELOS Laser Diffractometer.
Bulk batches of bromocriptine mesylate were micronized using a jet mill under a nitrogen atmosphere at a controlled temperature of 0° C. The volume particle size distribution was measured using a Sympatec HELOS H1013 Laser Diffractometer.

CC(C)C[C@H]1C(=O)N2CCC[C@H]2[C@]2(O)O[C@](NC(=O)[C@@H]3C=C4c5cccc6[nH]c(Br)c(c56)C[C@H]4N(C)C3)(C(C)C)C(=O)N12.CS(=O)(=O)O [Micronized Bromocriptine Mesylate]
% < 1 μm: 9% | % < 10 μm: 98% | % < 15 μm: 100%
